Some test systems named below: A498 renal; HCT-15 colon; HL-60(TB) leukemia; SNB-19 CNS; U251 CNS; 786-0 renal; SK-MEL-5 melanoma; OVCAR-4 ovarian; UACC-62 melanoma; IGROV1 ovarian.
Holding throughout (assay): DTP human tumour cell line panel, 48 h

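Following 48 hours of exposure in 96-well plates, responses at five concentrations were used to interpolate endpoints linearly. At the GI50, growth is halved. Definition used: TGI = concentration required for complete inhibition of growth.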 Bounds are passed on as bounds.

The text below walks through data of PubChem BioAssay (NCI).

Broadly, the TGI is the concentration giving total growth inhibition. Higher therefore signals lower sensitivity of the cells. As to `O=C1C2C3C=C4c5ccccc5N(c5ccccc5)C4(C2C(=O)N1Cc1ccccc1)C1C(=O)N(Cc2ccccc2)C(=O)C31` (stereo unspecified), the TGI with A498 renal, with HCT-15 colon, in the assay with HL-60(TB) leukemia, with SNB-19 CNS, with U251 CNS and in the assay with 786-0 renal was more than 100 µM each time.
Regarding `NCCCCN(CCCN)/[N+]([O-])=N\O`, the concentration for total growth inhibition (TGI) with HCT-15 colon, with SK-MEL-5 melanoma, with HL-60(TB) leukemia, with OVCAR-4 ovarian, in the assay with SNB-19 CNS and in the assay with U251 CNS was more than 100 µM in each case. Moreover, the TGI with 786-0 renal, with UACC-62 melanoma and in the assay on IGROV1 ovarian was more than 100 µM each time.
`COC(=O)/C(=N\Nc1nnc(C)n1N)C(C#N)c1ccc(Cl)cc1` (stereo unspecified): the TGI with A498 renal, in the assay on HCT-15 colon, in the assay on OVCAR-4 ovarian, in the assay on SNB-19 CNS, with U251 CNS and in the assay on 786-0 renal was more than 100 µM throughout. The TGI in the assay with UACC-62 melanoma and with IGROV1 ovarian was more than 100 µM in each case.
The term GI50 denotes the concentration that inhibits growth by half. On to `Cc1cc(C(=O)Nc2ncc(Cc3cccc(C(F)(F)F)c3)s2)c2ccccc2n1`, for which the GI50 in the assay with HCT-15 colon was 0.084 µM; with SK-MEL-5 melanoma, 1.03 µM; in the assay with HL-60(TB) leukemia it was 2.21 µM; with OVCAR-4 ovarian, 4.02 µM; in the assay with SNB-19 CNS, 3.02 µM; with U251 CNS, 2.92 µM. For the same compound, the GI50 in the assay with 786-0 renal is 2.84 µM; with IGROV1 ovarian it was 3.46 µM. In addition, the TGI is more than 100 µM in the assay on HCT-15 colon; more than 100 µM in the assay with SK-MEL-5 melanoma; 5.38 µM in the assay on HL-60(TB) leukemia; more than 100 µM in the assay with OVCAR-4 ovarian; more than 100 µM in the assay on SNB-19 CNS; more than 100 µM in the assay on U251 CNS. Besides, the TGI with 786-0 renal and in the assay on IGROV1 ovarian was more than 100 µM in each case.
For `CC1(C)SCc2nc3ncccc3n21`, the total growth inhibition concentration (TGI) in the assay with A498 renal, with HCT-15 colon, in the assay on SK-MEL-5 melanoma, with HL-60(TB) leukemia, with OVCAR-4 ovarian and in the assay with U251 CNS was more than 100 µM throughout. For the same compound, the TGI in the assay on 786-0 renal, with UACC-62 melanoma and in the assay on IGROV1 ovarian was more than 100 µM throughout.
As to `COC(C(O)CO)C(O)C(O)C(=O)NNc1ccccc1` (stereo unspecified), the TGI in the assay on A498 renal, with HCT-15 colon, in the assay with SK-MEL-5 melanoma, in the assay with HL-60(TB) leukemia, in the assay with SNB-19 CNS and with U251 CNS was more than 100 µM each time. The TGI in the assay on 786-0 renal, with UACC-62 melanoma and in the assay on IGROV1 ovarian was more than 100 µM each time.
With `Clc1nc(Cl)c(Cl)c(-c2ccccc2)n1`, the total growth inhibition concentration (TGI) with HCT-15 colon was more than 100 µM; in the assay with SK-MEL-5 melanoma, 11.8 µM; in the assay on HL-60(TB) leukemia it was more than 100 µM; in the assay with OVCAR-4 ovarian it was 20.6 µM; in the assay with SNB-19 CNS, 33.3 µM; in the assay with U251 CNS it was 30.3 µM. In addition, the values for the TGI in the assay on 786-0 renal and in the assay on IGROV1 ovarian were 7.45 µM and 31.1 µM, respectively.
Take `NCC1Nc2ccccc2[C@@H](O)C1O` (stereo partly specified): the TGI with HCT-15 colon, in the assay on SK-MEL-5 melanoma, in the assay on HL-60(TB) leukemia, in the assay with OVCAR-4 ovarian, with SNB-19 CNS and in the assay on U251 CNS was more than 100 µM in each case. For the same compound, the TGI in the assay with 786-0 renal, with UACC-62 melanoma and in the assay on IGROV1 ovarian was more than 100 µM each time.
`COc1ccccc1/C=C1\SC(=S)N(/C=C2\C(=O)Oc3ccccc3C2=O)C1=O`: the TGI is more than 100 µM in the assay on HCT-15 colon; 51.4 µM in the assay with SK-MEL-5 melanoma; more than 100 µM in the assay with OVCAR-4 ovarian; more than 100 µM with SNB-19 CNS; more than 100 µM with U251 CNS; more than 100 µM in the assay with 786-0 renal. Also, the values for the total growth inhibition concentration (TGI) with UACC-62 melanoma and in the assay on IGROV1 ovarian were 64 µM and more than 100 µM, respectively.
Turning to `CC(=O)/C(C)=N/NC(=O)c1ccccc1O`, the GI50 in the assay on A498 renal is more than 10 µM; in the assay with HCT-15 colon, more than 10 µM; in the assay with OVCAR-4 ovarian, more than 100 µM; in the assay with SNB-19 CNS, more than 100 µM; in the assay with U251 CNS it was more than 100 µM; in the assay on 786-0 renal it was more than 100 µM. For the same compound, the GI50 with UACC-62 melanoma and in the assay on IGROV1 ovarian was more than 10 µM throughout. The TGI in the assay on A498 renal, with HCT-15 colon, in the assay on SK-MEL-5 melanoma, with OVCAR-4 ovarian, in the assay on SNB-19 CNS and in the assay with U251 CNS was more than 100 µM throughout. The TGI in the assay on 786-0 renal, with UACC-62 melanoma and in the assay with IGROV1 ovarian was more than 100 µM each time.
On to `COc1cc2nc3cc([N+](=O)[O-])ccc3c(NCCCNCCO)c2cc1OC`, for which the GI50 with A498 renal is 0.214 µM; in the assay with HCT-15 colon, 3.59 µM; in the assay on HL-60(TB) leukemia it was 0.463 µM; with OVCAR-4 ovarian, 0.114 µM; in the assay with SNB-19 CNS it was 0.137 µM; with U251 CNS it was 0.149 µM. In addition, the GI50 with 786-0 renal was 0.239 µM; in the assay with IGROV1 ovarian, 0.225 µM. In addition, the TGI is 0.527 µM with A498 renal; 19.5 µM in the assay with HCT-15 colon; 4.32 µM in the assay with HL-60(TB) leukemia; 0.385 µM in the assay with OVCAR-4 ovarian; 0.495 µM in the assay with SNB-19 CNS; 0.433 µM in the assay with U251 CNS. The TGI with 786-0 renal was found to be 0.896 µM; in the assay on IGROV1 ovarian it was 0.672 µM.
Regarding `O=C1OC(C(O)CO)C(=O)C1=O` (stereo unspecified), the GI50 in the assay with A498 renal is 2520 µM; with HCT-15 colon it was 3420 µM; in the assay on SK-MEL-5 melanoma, more than 10000 µM; in the assay with OVCAR-4 ovarian it was 5580 µM; in the assay with SNB-19 CNS it was 8280 µM; in the assay on U251 CNS, 5090 µM. The GI50 is 3170 µM in the assay with 786-0 renal, 4330 µM in the assay on UACC-62 melanoma and 2350 µM in the assay on IGROV1 ovarian. The concentration for total growth inhibition (TGI) in the assay with A498 renal was 8510 µM; with HCT-15 colon, more than 10000 µM; in the assay with SK-MEL-5 melanoma, more than 10000 µM; with OVCAR-4 ovarian it was more than 10000 µM; in the assay on SNB-19 CNS it was more than 10000 µM; in the assay with U251 CNS it was more than 10000 µM. For the same compound, the TGI in the assay with 786-0 renal was 8770 µM; with UACC-62 melanoma, more than 10000 µM; in the assay on IGROV1 ovarian, 5170 µM.
On to `COc1cc(C=C2C(=O)NC(=O)NC2=O)cc(OC)c1OC`, for which the TGI in the assay with HCT-15 colon, in the assay with SK-MEL-5 melanoma, in the assay on HL-60(TB) leukemia, with OVCAR-4 ovarian, in the assay with SNB-19 CNS and in the assay on U251 CNS was more than 100 µM in each case. Moreover, the total growth inhibition concentration (TGI) with 786-0 renal and in the assay with UACC-62 melanoma was more than 100 µM throughout.
